This assay concerns tumor cells. Description: Tumor inhibition in mice subcutaneously inoculated with tumor cells. The class given is in vivo. As to conditions: 10 mg/kg once daily for 15 days; tumor weight vs saline group. The method, then:
A total of 140 mice (equal number of males and females), approximately 3 months old, with a weight range of 15.41-18.47 g, were selected. Mice were subcutaneously inoculated with tumor cells, and their blood samples were drawn 24 hours later to test tumor markers and confirm the success of the mouse model establishment. A total of 126 mice confirmed with cancer (equal number of males and females) were selected and randomly divided into 6 groups, with 21 mice in each group (roughly equal number of males and females). These 6 groups were designated as Experimental Group 1, Experimental Group 2, Experimental Group 3, Experimental Group 4, Experimental Group 5, and Experimental Group 6. […] Tumor inhibition rate was calculated as follows: Tumor Inhibition Rate=(Average Tumor Weight in Control Group−Average Tumor Weight in Experimental Group)/Average Tumor Weight in Control Group.

Take `CCCc1nn(C)c2c(=O)[nH]c(-c3cc(S(=O)(=O)N4CCN(C)CC4)ccc3OCC)nc12` [sildenafil]: the “Tumor Inhibition Rate” value came out at 40.55%. With `CC(C)=CCC/C(C)=C/CC/C(C)=C/CC/C(C)=C/CC/C(C)=C/CC/C(C)=C/CC/C(C)=C/CC1=C(C)C(=O)c2ccccc2C1=O` [MK-7, vitamin K2 (MK-7)] the figure was 35.67%.

(Values after patent US20250213500A1, “PHARMACEUTICAL COMPOSITION FOR IMPROVING LIFE QUALITY OF ELDERLY PEOPLE ON BASIS OF VITAMIN K2, PREPARATION METHOD THEREFOR AND USE THEREOF” (priority 2022, published 2025).)
